What was measured:
Format in all cases: ADME, organism-based
[1] = Prodrug conversion in rat assessed as 4-OH-DiPT formation by measuring AUC at 2 mg/kg, iv measured for 15 to 360 mins by LCMS analysis; parameters: dose 2 mg/kg, time 15-360 min, route iv; details: in vivo
[2] = Prodrug conversion in rat assessed as 4-OH-DiPT formation by measuring Cmax at 2 mg/kg, iv measured for 15 to 360 mins by LCMS analysis; parameters: time upper 360 min, dose 2 mg/kg, time lower 15 min, route iv; details: in vivo
[3] = Prodrug conversion in rat assessed as 4-OH-DiPT formation by measuring Cmax at 2 mg/kg, sc measured for 15 to 360 mins by LCMS analysis; parameters: time upper 360 min, time lower 15 min, dose 2 mg/kg, route sc; details: in vivo
[4] = Prodrug conversion in rat assessed as 4-OH-DiPT formation by measuring AUC at 2 mg/kg, sc measured for 15 to 360 mins by LCMS analysis; parameters: dose 2 mg/kg, time upper 360 min, time lower 15 min, route sc; details: in vivo
[5] = Prodrug conversion in rat assessed as 4-OH-DiPT formation by measuring Tmax at 2 mg/kg, sc measured for 15 to 360 mins by LCMS analysis; details: in vivo, time 15-360 min
[6] = Prodrug conversion in rat assessed as 4-OH-DiPT formation by measuring bioavailability at 2 mg/kg, sc measured for 15 to 360 mins by LCMS analysis; details: in vivo, time 15-360 min

CC(C)N(CCc1c[nH]c2cccc(OC(=O)CCCC(=O)O)c12)C(C)C
AUC [1]: 152 ng·h/mL | Cmax [2]: 458 ng/mL | Cmax [3]: 103 ng/mL | AUC [4]: 134 ng·h/mL | Tmax [5]: 36.6 min | F [6]: 89%

Reference: ChEMBL document CHEMBL5365552, “Tryptamines and Mental Health: Activating the 5-HT Receptor for Therapeutic Potential” (ACS Med Chem Lett, 2023)
